According to patent US20160201063A1, “EPIGENETIC REGULATORS OF FRATAXIN” (RANA THERAPEUTICS, INC., priority 2013, published 2016):

Assays:
[1] = tested on: FXN mRNA; experiment: Screen of epigenetic inhibitors in GM0321 normal fibroblasts, FXN RNA levels; type: cell-based, human; conditions: for fold induction at 5 µM / fold induction at 1 µM: Homo sapiens, Fibroblast, 72 h; for fold induction at 5 µM: read-out: FXN mRNA fold change, 321B 5 uM; for fold induction at 1 µM: read-out: FXN mRNA fold change, 321B 1 uM
[2] = tested on: FXN mRNA; experiment: Screen of library of eighty epigenetic inhibitors in GM03816 FRDA diseased fibroblasts, FXN mRNA fold change; type: cell-based, human; conditions: for fold induction at 1 µM / fold induction at 5 µM: Homo sapiens, Fibroblast, 72 h; for fold induction at 1 µM: read-out: 3816 1 uM (FXN mRNA fold change); for fold induction at 5 µM: read-out: 3816 5 uM (FXN mRNA fold change)
Description: FXN RNA levels are indicated on the y-axis and the inhibitors used at both 1 μM and 5 μM are shown on the x-axis.
A screen of a library of eighty epigenetic inhibitors (Cayman Chemical) was performed in GM03816 FRDA fibroblasts to identify epigenetic regulators that upregulate FXN expression.

[3] = tested on: FXN mRNA; experiment: Gapmer screen in differentiated myotubes, FXN mRNA levels; type: cell-based; conditions: 4 days after transfection
From the text: Subsequently, various oligos targeting ACTL6A, EID1, HIC1, JUND, KAT2A, PRKCD, and YEATS4 were screened in differentiated myotubes for FXN mRNA levels. Measurements were taken 4 days after transfection.

[4] = GM0321 normal fibroblasts, 5 uM inhibitor, 3 days of treatment
[5] = GM03816 FRDA diseased fibroblasts, 1 uM inhibitor, 3 days of treatment
[6] = GM03816 FRDA diseased fibroblasts, 5 uM inhibitor, 3 days of treatment
[7] = GM0321 normal fibroblasts, 1 uM inhibitor, 3 days of treatment

Compound | fold induction at 5 µM [1, 4] | fold induction at 1 µM [2, 5] | fold induction at 5 µM [2, 6] | fold induction at 1 µM [1, 7] | FXN mRNA fold change, 321B 1 uM [1, 7] | FXN mRNA fold change, 321B 5 uM [1, 4] | 3816 1 uM (FXN mRNA fold change) [2, 5] | 3816 5 uM (FXN mRNA fold change) [2, 6] | also measured
O=C(O)CNC(=O)C(=O)O [N-Oxalylglycine] | 0.68 | 0.708 | 1.03 |  |  |  |  |  | 
NC(=O)c1cccnc1 [Nicotinamide] | 0.702 | 0.852 | 0.775 | 0.687 |  |  |  |  | 
O=C(CCCCCCC(=O)Nc1ccc(I)cc1)NO [Oligo 4-iodo-SAHA] |  |  |  |  | 0.668 | 0.5901 | 0.6878 | 0.1302 | 
COc1ccc(Cn2ccc3ccc(C(=O)NO)cc32)cc1 [PCI 34051] |  |  |  |  | 0.9743 | 1.306 | 1.084 | 1.209 | 
COc1ccccc1S(=O)(=O)Nc1ccc2c(c1)CN(C)C(=O)N2 [PFI-1] |  |  |  |  | 0.9577 | 0.9071 | 0.9175 | 0.923 | 
Oc1cc(O)cc(/C=C/c2ccc(O)c(O)c2)c1 [Picetannol] |  |  |  |  | 0.5008 | 0.538 | 0.7867 | 0.5435 | 
Cc1ccc(NC(=O)CCCCCC(=O)Nc2ccccc2N)cc1 [Pimelic Diphenylamide 106] |  |  |  |  | 0.694 | 0.2094 | 0.7457 | 0.4858 | 
O=C(O)C(Cc1c[nH]c2ccccc12)N1C(=O)c2ccccc2C1=O (stereo not drawn) [RG-108] |  |  |  |  |  | 0.6222 | 1.001 | 0.8966 | 
Nc1ncnc2c1ncn2[C@@H]1O[C@H](CSCC[C@H](N)C(=O)O)[C@@H](O)[C@H]1O [S-Adenosylhomocysteine] | 0.619 | 1.07 | 0.886 | 0.975 |  |  |  |  | 
O=C(CCCCCCC(=O)Nc1ccccc1)NO [SAHA] |  |  |  |  | 0.4256 | 0.1923 | 0.4857 | 0.0916 | 
CCCCc1nc2cc(/C=C/C(=O)NO)ccc2n1CCN(CC)CC [SB 939] | 0.465 | 0.298 | 0.315 | 0.435 |  |  |  |  | 
CC(C(=O)Nc1cccc(/N=C/c2c(O)ccc3ccccc23)c1)c1ccccc1 (stereo not drawn) [Salermide] | 0.815 | 1.16 | 0.996 | 1.06 |  |  |  |  | 
Nc1ncnc2c1ncn2[C@@H]1O[C@H](C[C@@H](N)CC[C@H](N)C(=O)O)[C@@H](O)[C@H]1O [Sinefungin, reference compound] | 0.821 | 0.895 | 0.862 | 0.551 |  |  |  |  | 
CC(NC(=O)c1ccccc1/N=C/c1c(O)ccc2ccccc12)c1ccccc1 (stereo not drawn) [Sirtinol] | 1.02 | 1.06 | 0.92 | 0.81 |  |  |  |  | 
CCCC(=O)[O-].[Na+] [Sodium Butyrate] |  |  |  |  |  |  |  |  | fold induction at 1 µM [1]: 1.06; fold induction at 5 µM [1]: 0.707; fold induction at 1 µM [2]: 1.03; fold induction at 5 µM [2]: 1.16
O=C1CCc2c(ccc3ccccc23)O1 [Splitomicin] | 1.01 | 0.957 | 0.939 | 1.08 |  |  |  |  | 
O=C(CCCCCCC(=O)NO)NO [Suberohydroxamic Acid] | 1.02 | 1.18 | 0.982 | 0.959 |  |  |  |  | 
Cc1ccc(C(=O)Nc2ccc(S(=O)(=O)O)c3cc(S(=O)(=O)O)cc(S(=O)(=O)O)c23)cc1NC(=O)c1cccc(NC(=O)Nc2cccc(C(=O)Nc3cc(C(=O)Nc4ccc(S(=O)(=O)O)c5cc(S(=O)(=O)O)cc(S(=O)(=O)O)c45)ccc3C)c2)c1 [Suramin] |  |  |  |  |  |  |  |  | fold induction at 5 µM [1]: 0.772; fold induction at 1 µM [2]: 0.954; fold induction at 5 µM [2]: 0.835

Compound | fold induction at 5 µM [1, 4] | fold induction at 1 µM [2, 5] | fold induction at 5 µM [2, 6] | fold induction at 1 µM [1, 7] | FXN mRNA fold change, 321B 1 uM [1, 7] | FXN mRNA fold change, 321B 5 uM [1, 4] | 3816 1 uM (FXN mRNA fold change) [2, 5] | 3816 5 uM (FXN mRNA fold change) [2, 6] | also measured
CC(/C=C/C(=O)NO)=C\[C@@H](C)C(=O)c1ccc(N(C)C)cc1 [Trichostatin A] |  |  |  |  | 1.023 | 0.7721 | 0.9338 | 0.6921 | 
CN1CCc2c(c3ccccc3n2Cc2ccc(C(=O)NO)cc2)C1 [Tubastatin A] |  |  |  |  | 0.8993 | 1.038 | 0.9276 | 0.9192 | 
COc1cc2c(NC3CCN(C)CC3)nc(N3CCCN(C)CC3)nc2cc1OCCCN(C)C [UNC0224, 7-[3-(Dimethylamino)propoxy]-2-(hexahydro-4-methyl-1H-1,4-diazepin-1-yl)-6-methoxy-N-(1-methyl-4-piperidinyl)-4-quinazolinamine, reference compound] | 0.875 | 0.958 | 0.656 | 0.876 |  |  |  |  | 
COc1cc2c(NC3CCN(C(C)C)CC3)nc(C3CCCCC3)nc2cc1OCCCN1CCCC1 [UNC0638, 2-Cyclohexyl-6-methoxy-N-[1-(1-methylethyl)-4-piperidinyl]-7-[3-(1-pyrrolidinyl)propoxy]-4-quinazolinamine, reference compound] | 1.02 | 1.27 | 1.17 | 1.09 |  |  |  |  | 
CCCC(CCC)C(=O)O [Valproic acid] | 0.847 | 0.901 | 1 | 1.26 |  |  |  |  | 
O=c1ncccn1[C@@H]1O[C@H](CO)[C@@H](O)[C@H]1O [Zebularine] | 1.03 | 1.07 | 1.09 | 1.07 |  |  |  |  | 
(3S,3′S,5aR,5aR,10bR,10′bR,11aS,11′aS)- 2,2′,3,3′,5a,5′a,6,6′-octahydro- 3,3′-bis(hydroxymethyl)-2,2′- dimethyl-[10b,10′b(11H,11′H)- bi3,11a-epidithio-11aH- pyrazino[1′,2′:1,5]pyrrolo[2,3- b]indole]-1,1′4,4′-tetrone [Chaetocin, reference compound] |  |  |  |  | 0.9084 | 0.9952 | 0.9302 | 0.7778 | 
(−)-Neplanocin A |  |  |  |  | 0.8734 | 1.105 | 1.067 | 0.943 | 
ACTL6A-02: LNA/DNA gapmer to human ACTL6A, SEQ ID NO 2, ATCGCCATCTATTTC (LNA modifications, chemistry not fully specified) |  |  |  |  |  |  |  |  | FXN mRNA level [3]: upregulation of FXN mRNA
ACTL6A-04: LNA/DNA gapmer to human ACTL6A, SEQ ID NO 4, GCCCAGTAGAACGAC (LNA modifications, chemistry not fully specified) |  |  |  |  |  |  |  |  | FXN mRNA level [3]: upregulation of FXN mRNA
Anacardic Acid |  |  |  |  | 1.169 | 0.8356 | 1.162 | 1.01 | 
EID1-04: LNA/DNA gapmer to human EID1, SEQ ID NO 12, AGCTCTTCGATAAAA (LNA modifications, chemistry not fully specified) |  |  |  |  |  |  |  |  | FXN mRNA level [3]: upregulation of FXN mRNA
HIC1-1: LNA/DNA gapmer to human HIC1, SEQ ID NO 70, GGCCGGTGTAGATGA (LNA modifications, chemistry not fully specified) |  |  |  |  |  |  |  |  | FXN mRNA level [3]: upregulation of FXN mRNA
JUND-6: LNA/DNA gapmer to human JUND, SEQ ID NO 66, TGGCTCGTCCTTGAG (LNA modifications, chemistry not fully specified) |  |  |  |  |  |  |  |  | FXN mRNA level [3]: upregulation of FXN mRNA
KAT2A-05: LNA/DNA gapmer to human KAT2A, SEQ ID NO 35, CATTGACCAGCTCCA (LNA modifications, chemistry not fully specified) |  |  |  |  |  |  |  |  | FXN mRNA level [3]: upregulation of FXN mRNA
KAT2A-06: LNA/DNA gapmer to human KAT2A, SEQ ID NO 36, GGCGATATACTCCTT (LNA modifications, chemistry not fully specified) |  |  |  |  |  |  |  |  | FXN mRNA level [3]: upregulation of FXN mRNA
Oxamflatin |  |  |  |  | 0.5612 | 0.2391 | 0.3506 | 0.108 | 
UNC0321 (trifluoroacetate salt) |  |  |  |  | 0.7517 | 0.605 | 0.9323 | 0.8929 | 
